Source: patent US20250051344A1, “BIFUNCTIONAL SELECTIVE DEGRADERS OF SMARCA2 AND THERAPEUTIC USES THEREOF” (Nurix Therapeutics, Inc., priority 2023, published 2025)

Key:
SMARCA4 = target: T1, SMARCA4 (Homo sapiens, UniProt P51532); experiment: Cellular degradation assay, SMARCA4 (Table 1); format: cell-based
T1 construct: endogenous in cells

SMARCA2 = target: T2, SMARCA2 (Homo sapiens, UniProt P51531); experiment: SMARCA2 Cellular Degradation Assay (Western blot analysis on Jess platform); format: cell-based; conditions: for Dmax / DC50: cellular degradation; for Fold Selectivity SMARCA4/2: ratio DC50 SMARCA4 / DC50 SMARCA2
T2 construct: endogenous in cells
Summary of the method: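 SMARCA2 remaining is given as percent of vehicle control, using actin-normalized, background-corrected electropherogram areas. Measurement was by Jess capillary immunoassay (anti-SMARCA2 with anti-β-actin) on 5 μg protein from RIPA/SDS lysates of tumor-derived cells.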

T2 sequence (P51531 whole entry, species assumed): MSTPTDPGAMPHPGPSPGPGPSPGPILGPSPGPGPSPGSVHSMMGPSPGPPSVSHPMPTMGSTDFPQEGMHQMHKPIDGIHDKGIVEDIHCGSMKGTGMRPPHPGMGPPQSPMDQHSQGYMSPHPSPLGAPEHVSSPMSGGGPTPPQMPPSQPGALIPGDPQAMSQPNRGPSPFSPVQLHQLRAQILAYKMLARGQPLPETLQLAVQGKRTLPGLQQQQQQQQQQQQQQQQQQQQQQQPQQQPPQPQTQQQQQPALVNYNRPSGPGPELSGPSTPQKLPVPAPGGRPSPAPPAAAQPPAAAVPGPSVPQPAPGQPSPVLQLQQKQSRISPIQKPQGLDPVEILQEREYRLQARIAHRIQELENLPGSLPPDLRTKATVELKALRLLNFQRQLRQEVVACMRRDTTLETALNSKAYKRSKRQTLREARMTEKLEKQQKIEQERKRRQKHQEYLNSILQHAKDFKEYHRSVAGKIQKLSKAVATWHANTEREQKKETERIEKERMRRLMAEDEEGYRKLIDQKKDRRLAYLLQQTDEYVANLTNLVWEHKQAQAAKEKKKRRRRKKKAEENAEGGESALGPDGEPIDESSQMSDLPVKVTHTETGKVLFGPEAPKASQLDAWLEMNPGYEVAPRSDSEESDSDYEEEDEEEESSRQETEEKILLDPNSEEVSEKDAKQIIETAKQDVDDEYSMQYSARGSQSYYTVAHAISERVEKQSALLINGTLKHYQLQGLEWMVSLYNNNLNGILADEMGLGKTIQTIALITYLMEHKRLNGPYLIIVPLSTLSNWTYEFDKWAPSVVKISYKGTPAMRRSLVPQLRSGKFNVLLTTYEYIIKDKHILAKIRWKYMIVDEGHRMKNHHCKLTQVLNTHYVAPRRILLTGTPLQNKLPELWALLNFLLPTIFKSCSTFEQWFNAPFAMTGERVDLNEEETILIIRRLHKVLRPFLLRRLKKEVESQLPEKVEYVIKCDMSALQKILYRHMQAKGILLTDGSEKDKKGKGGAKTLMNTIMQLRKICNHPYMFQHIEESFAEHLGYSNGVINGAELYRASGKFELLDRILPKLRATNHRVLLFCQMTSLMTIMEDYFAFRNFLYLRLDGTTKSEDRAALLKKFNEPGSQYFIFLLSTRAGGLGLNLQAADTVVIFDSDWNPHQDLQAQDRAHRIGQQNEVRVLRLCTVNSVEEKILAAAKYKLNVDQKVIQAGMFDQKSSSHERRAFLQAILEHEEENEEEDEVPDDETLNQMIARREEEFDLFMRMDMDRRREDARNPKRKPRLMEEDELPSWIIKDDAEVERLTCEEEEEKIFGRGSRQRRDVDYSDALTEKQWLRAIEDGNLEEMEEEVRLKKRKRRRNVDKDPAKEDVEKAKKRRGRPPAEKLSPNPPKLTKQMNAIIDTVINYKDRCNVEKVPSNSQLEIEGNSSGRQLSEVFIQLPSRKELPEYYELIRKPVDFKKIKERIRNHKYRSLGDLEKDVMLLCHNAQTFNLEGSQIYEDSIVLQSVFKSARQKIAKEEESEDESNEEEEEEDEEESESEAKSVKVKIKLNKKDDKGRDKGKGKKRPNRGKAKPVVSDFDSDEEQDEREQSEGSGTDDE
T1 sequence (P51532 whole entry, species assumed): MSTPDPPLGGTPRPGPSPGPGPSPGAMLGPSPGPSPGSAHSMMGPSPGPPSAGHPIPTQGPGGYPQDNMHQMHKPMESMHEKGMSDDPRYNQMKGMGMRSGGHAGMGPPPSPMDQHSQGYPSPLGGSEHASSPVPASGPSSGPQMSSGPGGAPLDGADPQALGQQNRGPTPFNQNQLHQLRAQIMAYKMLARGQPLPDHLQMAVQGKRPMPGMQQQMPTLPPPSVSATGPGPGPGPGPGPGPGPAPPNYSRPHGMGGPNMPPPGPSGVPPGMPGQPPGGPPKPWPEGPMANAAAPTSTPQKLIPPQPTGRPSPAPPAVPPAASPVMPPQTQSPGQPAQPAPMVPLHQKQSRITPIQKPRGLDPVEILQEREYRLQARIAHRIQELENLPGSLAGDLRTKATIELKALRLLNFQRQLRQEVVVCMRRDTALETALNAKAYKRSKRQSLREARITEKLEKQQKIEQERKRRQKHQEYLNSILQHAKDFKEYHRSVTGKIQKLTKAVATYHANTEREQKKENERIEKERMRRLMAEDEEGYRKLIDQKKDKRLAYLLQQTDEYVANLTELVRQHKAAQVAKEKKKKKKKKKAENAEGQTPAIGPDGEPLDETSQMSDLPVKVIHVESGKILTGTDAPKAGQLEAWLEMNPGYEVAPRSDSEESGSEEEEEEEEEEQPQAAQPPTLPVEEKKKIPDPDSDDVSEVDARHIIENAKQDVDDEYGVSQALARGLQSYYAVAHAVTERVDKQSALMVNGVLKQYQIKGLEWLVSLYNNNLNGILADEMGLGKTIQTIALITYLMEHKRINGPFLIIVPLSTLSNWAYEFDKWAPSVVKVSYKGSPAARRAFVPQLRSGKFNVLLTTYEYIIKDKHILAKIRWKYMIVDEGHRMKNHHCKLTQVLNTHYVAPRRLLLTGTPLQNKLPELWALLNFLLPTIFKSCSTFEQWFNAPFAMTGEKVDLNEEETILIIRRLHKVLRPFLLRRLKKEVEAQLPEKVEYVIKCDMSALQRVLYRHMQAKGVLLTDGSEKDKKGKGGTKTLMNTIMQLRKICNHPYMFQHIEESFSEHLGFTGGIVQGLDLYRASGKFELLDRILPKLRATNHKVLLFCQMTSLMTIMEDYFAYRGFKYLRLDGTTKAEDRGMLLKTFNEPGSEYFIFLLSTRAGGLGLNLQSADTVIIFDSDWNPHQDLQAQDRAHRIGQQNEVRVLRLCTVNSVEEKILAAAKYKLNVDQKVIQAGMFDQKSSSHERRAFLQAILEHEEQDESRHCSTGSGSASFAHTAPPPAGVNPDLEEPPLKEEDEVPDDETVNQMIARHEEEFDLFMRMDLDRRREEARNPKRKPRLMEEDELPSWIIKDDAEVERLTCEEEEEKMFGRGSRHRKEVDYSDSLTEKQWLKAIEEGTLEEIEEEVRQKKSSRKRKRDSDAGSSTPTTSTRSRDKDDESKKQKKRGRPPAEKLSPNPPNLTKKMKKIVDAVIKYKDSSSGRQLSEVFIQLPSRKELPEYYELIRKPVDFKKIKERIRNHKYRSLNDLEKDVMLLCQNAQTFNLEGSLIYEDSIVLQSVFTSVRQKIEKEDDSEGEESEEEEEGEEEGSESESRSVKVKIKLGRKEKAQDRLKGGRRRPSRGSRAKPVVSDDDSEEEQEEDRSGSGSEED

Dmax (SMARCA4) | Dmax (SMARCA2) | Fold Selectivity SMARCA4/2 (SMARCA2) | DC50 (SMARCA4) | DC50 (SMARCA2) | SMILES
3.22% | 44.8% | 1 |  |  | O=C1CC[C@H](c2ccc(N3CCC(CN4CC5CCN(C(=O)C6(c7ccccc7)CCN(c7cnnc(-c8ccccc8O)c7)CC6)CC54)CC3)cc2)C(=O)N1 (stereo partly drawn) [Example 38, (3R)-3-(4-{4-[(3-{1-[6-(2-hydroxyphenyl)pyridazin-4-yl]-4-phenylpiperidine-4-carbonyl}-3,8-diazabicyclo[4.2.0]octan-8-yl)methyl]piperidin-1-yl}phenyl)piperidine-2,6-dione]
53.7% | 84.8% | 25.67 | 79.3 nM | 3.09 nM | O=C1CC[C@H](c2ccc(N3CCC(CN4CCC(NC(=O)C5(c6ccccc6)CCN(c6cnnc(-c7ccccc7O)c6)CC5)CC45CCC5)CC3)cc2)C(=O)N1 (stereo partly drawn) [Example 39, N-{5-[(1-{4-[(3R)-2,6-dioxopiperidin-3-yl]phenyl}piperidin-4-yl)methyl]-5-azaspiro[3.5]nonan-8-yl}-1-[6-(2-hydroxyphenyl)pyridazin-4-yl]-4-phenylpiperidine-4-carboxamide]
13.8% | 50.3% | 31.55 |  | 317 nM | O=C1CC[C@H](c2ccc(N3CCC(CN4CCCC4C4CCN(C(=O)C5(c6ccccc6)CCN(c6cnnc(-c7ccccc7O)c6)CC5)CC4)CC3)cc2)C(=O)N1 (stereo partly drawn) [Example 40, (3R)-3-[4-(4-{[2-(1-{1-[6-(2-hydroxyphenyl)pyridazin-4-yl]-4-phenylpiperidine-4-carbonyl}piperidin-4-yl)pyrrolidin-1-yl]methyl}piperidin-1-yl)phenyl]piperidine-2,6-dione]
41% | 36.8% | 1 |  |  | O=C1CC[C@H](c2ccc(N3CCC(CN4CCCC5C4CCCN5C(=O)C4(c5ccccc5)CCN(c5cnnc(-c6ccccc6O)c5)CC4)CC3)cc2)C(=O)N1 (stereo partly drawn) [Example 41, (3R)-3-(4-{4-[(5-{1-[6-(2-hydroxyphenyl)pyridazin-4-yl]-4-phenylpiperidine-4-carbonyl}-decahydro-1,5-naphthyridin-1-yl)methyl]piperidin-1-yl}phenyl)piperidine-2,6-dione]
9.32% | 28.7% | 1 |  |  | O=C1CC[C@H](c2ccc(N3CCC(CN4CCCC4C4CCCCN4C(=O)C4(c5ccccc5)CCN(c5cnnc(-c6ccccc6O)c5)CC4)CC3)cc2)C(=O)N1 (stereo partly drawn) [Example 42, (3R)-3-[4-(4-{[2-(1-{1-[6-(2-hydroxyphenyl)pyridazin-4-yl]-4-phenylpiperidine-4-carbonyl}piperidin-2-yl)pyrrolidin-1-yl]methyl}piperidin-1-yl)phenyl]piperidine-2,6-dione]
45.1% | 63.3% | 297.00 |  | 33.7 nM | O=C1CC[C@H](c2ccc(N3CCC(CN4CCCN(C(=O)C5(c6ccccc6)CCN(c6cnnc(-c7ccccc7O)c6)CC5)CC4)CC3)cc2)C(=O)N1 [Example 46, (3R)-3-(4-{4-[(4-{1-[6-(2-hydroxyphenyl)pyridazin-4-yl]-4-phenylpiperidine-4-carbonyl}-1,4-diazepan-1-yl)methyl]piperidin-1-yl}phenyl)piperidine-2,6-dione]
2.09% | 7.19% | 1 |  |  | O=C1CC[C@H](c2ccc(N3CCC(CN4CC5CC(NC(=O)C6(c7ccccc7)CCN(c7cnnc(-c8ccccc8O)c7)CC6)C4C5)CC3)cc2)C(=O)N1 (stereo partly drawn) [Example 47, N-{2-[(1-{4-[(3R)-2,6-dioxopiperidin-3-yl]phenyl}piperidin-4-yl)methyl]-2-azabicyclo[2.2.1]heptan-6-yl}-1-[6-(2-hydroxyphenyl)pyridazin-4-yl]-4-phenylpiperidine-4-carboxamide]
16.3% | 35.6% | 1 |  |  | O=C1CC[C@H](c2ccc(N3CCC(CN4CCC(C5CCN(C(=O)C6(c7ccccc7)CCN(c7cnnc(-c8ccccc8O)c7)CC6)CC5)C4)CC3)cc2)C(=O)N1 (stereo partly drawn) [Example 48, (3R)-3-[4-(4-{[3-(1-{1-[6-(2-hydroxyphenyl)pyridazin-4-yl]-4-phenylpiperidine-4-carbonyl}piperidin-4-yl)pyrrolidin-1-yl]methyl}piperidin-1-yl)phenyl]piperidine-2,6-dione]
59.8% | 76.9% | 6.52 | 172 nM | 26.4 nM | O=C1CC[C@H](c2ccc(N3CCC(CNC4CC5CCCC(C4)C5NC(=O)C4(c5ccccc5)CCN(c5cnnc(-c6ccccc6O)c5)CC4)CC3)cc2)C(=O)N1 (stereo partly drawn) [Example 49, N-(3-{[(1-{4-[(3R)-2,6-dioxopiperidin-3-yl]phenyl}piperidin-4-yl)methyl]amino}bicyclo[3.3.1]nonan-9-yl)-1-[6-(2-hydroxyphenyl)pyridazin-4-yl]-4-phenylpiperidine-4-carboxamide]
20.2% | 53.4% | 73.54 |  | 136 nM | CC1CC2CN(CC3CCN(c4ccc([C@H]5CCC(=O)NC5=O)cc4)CC3)CC2N1C(=O)C1(c2ccccc2)CCN(c2cnnc(-c3ccccc3O)c2)CC1 (stereo partly drawn) [Example 50, (3R)-3-(4-{4-[(1-{1-[6-(2-hydroxyphenyl)pyridazin-4-yl]-4-phenylpiperidine-4-carbonyl}-2-methyl-hexahydropyrrolo[2,3-c]pyrrol-5-yl)methyl]piperidin-1-yl}phenyl)piperidine-2,6-dione]
0.85% | 26.7% | 1 |  |  | O=C1CC[C@H](c2ccc(N3CCC(CN4CCC5CN(C(=O)C6(c7ccccc7)CCN(c7cnnc(-c8ccccc8O)c7)CC6)C5C4)CC3)cc2)C(=O)N1 (stereo partly drawn) [Example 51, (3R)-3-(4-{4-[(8-{1-[6-(2-hydroxyphenyl)pyridazin-4-yl]-4-phenylpiperidine-4-carbonyl}-3,8-diazabicyclo[4.2.0]octan-3-yl)methyl]piperidin-1-yl}phenyl)piperidine-2,6-dione]
13.7% | 44% | 1 |  |  | O=C1CC[C@H](c2ccc(N3CCC(CN4CC(F)(F)C5(C4)CN(C(=O)C4(c6ccccc6)CCN(c6cnnc(-c7ccccc7O)c6)CC4)C5)CC3)cc2)C(=O)N1 [Example 52, (3R)-3-(4-{4-[(8,8-difluoro-2-{1-[6-(2-hydroxyphenyl)pyridazin-4-yl]-4-phenylpiperidine-4-carbonyl}-2,6-diazaspiro[3.4]octan-6-yl)methyl]piperidin-1-yl}phenyl)piperidine-2,6-dione]
9.06% | 47.2% | 1 |  |  | O=C1CC[C@H](c2ccc(N3CCC(CN4CCN(C(=O)C5(c6ccccc6)CCN(c6cnnc(-c7ccccc7O)c6)CC5)CCC4C(F)(F)F)CC3)cc2)C(=O)N1 (stereo partly drawn) [Example 53, (3R)-3-(4-(4-((4-(1-(6-(2-hydroxyphenyl)pyridazin-4-yl)-4-phenylpiperidine-4-carbonyl)-7-(trifluoromethyl)-1,4-diazepan-1-yl)methyl)piperidin-1-yl)phenyl)piperidine-2,6-dione]
69.2% | 94.2% | 32 | 59.3 nM | 1.88 nM | O=C1CC[C@H](c2ccc(N3CCC(CCN4CCC(N(C(=O)C5(c6ccccc6)CCN(c6cnnc(-c7ccccc7O)c6)CC5)C5CC5)CC4)CC3)cc2)C(=O)N1 [Example 74, N-cyclopropyl-N-{1-[2-(1-{4-[(3r)-2,6-dioxopiperidin-3-yl]phenyl}piperidin-4-yl)ethyl]piperidin-4-yl}-1-[6-(2-hydroxyphenyl)pyridazin-4-yl]-4-phenylpiperidine-4-carboxamide]
41.9% | 90.9% | 1220 |  | 8.19 nM | COc1ccccc1C1(C(=O)N(C)C2CCN(CCC3CCN(c4ccc([C@H]5CCC(=O)NC5=O)c(F)c4)CC3)CC2)CCN(c2cnnc(-c3ccccc3O)c2)CC1 [Example 85, N-{1-[2-(1-{4-[(3R)-2,6-dioxopiperidin-3-yl]-3-fluorophenyl}piperidin-4-yl)ethyl]piperidin-4-yl}-1-[6-(2-hydroxyphenyl)pyridazin-4-yl]-4-(2-methoxyphenyl)-N-methylpiperidine-4-carboxamide]
66.4% | 92.4% | 34 | 115 nM | 3.4 nM | CCCN(C(=O)C1(c2ccccc2)CCN(c2cnnc(-c3ccccc3O)c2)CC1)C1CCN(CCC2CCN(c3ccc([C@H]4CCC(=O)NC4=O)cc3)CC2)CC1 [Example 100, N-{1-[2-(1-{4-[(3R)-2,6-dioxopiperidin-3-yl]phenyl}piperidin-4-yl)ethyl]piperidin-4-yl}-1-[6-(2-hydroxyphenyl)pyridazin-4-yl]-4-phenyl-n-propylpiperidine-4-carboxamide]
49.9% | 78.6% | 1006 |  | 9.94 nM | CN(C(=O)C1(OC2CC2)CCN(c2cnnc(-c3ccccc3O)c2)CC1)C1CCN(CC2CCN(c3ccc([C@H]4CCC(=O)NC4=O)cc3)CC2)CC1 [Example 114, (r)-4-cyclopropoxy-n-(1-((1-(4-(2,6-dioxopiperidin-3-yl)phenyl)piperidin-4-yl)methyl)piperidin-4-yl)-1-(6-(2-hydroxyphenyl)pyridazin-4-yl)-n-methylpiperidine-4-carboxamide]

SMILES | Dmax (SMARCA4) | Dmax (SMARCA2) | Fold Selectivity SMARCA4/2 (SMARCA2) | DC50 (SMARCA4) | DC50 (SMARCA2)
O=C1CC[C@H](c2ccc(N3CCC(CN4CC5CCCC(C4)N(C(=O)C4(c6ccccc6)CCN(c6cnnc(-c7ccccc7O)c6)CC4)C5)CC3)cc2)C(=O)N1 (stereo partly drawn) [Example 45, (3R)-3-(4-{4-[(9-{1-[6-(2-hydroxyphenyl)pyridazin-4-yl]-4-phenylpiperidine-4-carbonyl}-3,9-diazabicyclo[3.3.2]decan-3-yl)methyl]piperidin-1-yl}phenyl)piperidine-2,6-dione] | 9.72% | 29.5% | 1 |  | 
